Reference: PubChem BioAssay (NCI)
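Dose response: 5 concentrations. Exposure: 48 h. Format: 96-well plates. Endpoint: linear interpolation; highest concentration if not reached. TGI denotes the concentration required for complete inhibition of growth.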

Tests used:
Assay in all cases: NCI-60 cell line screen, 48 h
KM20L2 colon = system: KM20L2 colon
KM12 colon = system: KM12 colon
OVCAR-3 ovarian = system: OVCAR-3 ovarian
SNB-78 CNS = system: SNB-78 CNS
IGROV1 ovarian = system: IGROV1 ovarian
TK-10 renal = system: TK-10 renal
SK-OV-3 ovarian = system: SK-OV-3 ovarian
SK-MEL-5 melanoma = system: SK-MEL-5 melanoma
A549 NSCLC = system: A549 NSCLC
EKVX NSCLC = system: EKVX NSCLC
UO-31 renal = system: UO-31 renal
M14 melanoma = system: M14 melanoma
UACC-62 melanoma = system: UACC-62 melanoma
SW-620 colon = system: SW-620 colon
UACC-257 melanoma = system: UACC-257 melanoma
DLD-1 colon = system: DLD-1 colon
ACHN renal = system: ACHN renal
MALME-3M melanoma = system: MALME-3M melanoma
SF-268 CNS = system: SF-268 CNS
COLO 205 colon = system: COLO 205 colon
A498 renal = system: A498 renal
OVCAR-5 ovarian = system: OVCAR-5 ovarian
SF-539 CNS = system: SF-539 CNS
NCI-H460 lung = system: NCI-H460 lung
NCI-H522 lung = system: NCI-H522 lung
HT29 colon = system: HT29 colon
CAKI-1 renal = system: CAKI-1 renal
786-0 renal = system: 786-0 renal
HCT-15 colon = system: HCT-15 colon
SR leukemia = system: SR leukemia
LOX IMVI melanoma = system: LOX IMVI melanoma
OVCAR-8 ovarian = system: OVCAR-8 ovarian
SK-MEL-2 melanoma = system: SK-MEL-2 melanoma
NCI-H23 lung = system: NCI-H23 lung
U251 CNS = system: U251 CNS
RXF-631 renal = system: RXF-631 renal
M19-MEL melanoma = system: M19-MEL melanoma
HOP-62 NSCLC = system: HOP-62 NSCLC
OVCAR-4 ovarian = system: OVCAR-4 ovarian
LXFL 529 NSCLC = system: LXFL 529 NSCLC
HCT-116 colon = system: HCT-116 colon
SNB-19 CNS = system: SNB-19 CNS
DMS 114 small cell lung = system: DMS 114 small cell lung
SN12C renal = system: SN12C renal
SF-295 CNS = system: SF-295 CNS
NCI-H226 lung = system: NCI-H226 lung
XF 498 CNS = system: XF 498 CNS
HL-60(TB) leukemia = system: HL-60(TB) leukemia
SK-MEL-28 melanoma = system: SK-MEL-28 melanoma
SNB-75 CNS = system: SNB-75 CNS
DMS 273 small cell lung = system: DMS 273 small cell lung
CCRF-CEM leukemia = system: CCRF-CEM leukemia
RXF 393 renal = system: RXF 393 renal
K-562 leukemia = system: K-562 leukemia
HOP-92 NSCLC = system: HOP-92 NSCLC

In the case of O=C1/C=C(/c2ccc(O)cc2)[C@@H](O)Cc2ccc(O)cc2O1, the TGI (KM20L2 colon) is reported as > 100 µM, the TGI (KM12 colon) is reported as > 100 µM and the TGI (OVCAR-3 ovarian) is reported as > 100 µM. The TGI (SNB-78 CNS) was > 100 µM, the TGI (IGROV1 ovarian) was > 100 µM and the TGI (TK-10 renal) was > 100 µM. For the same compound, the TGI (SK-OV-3 ovarian) was > 100 µM, the TGI (SK-MEL-5 melanoma) was > 100 µM and the TGI (A549 NSCLC) was > 100 µM. For the same compound, the TGI (EKVX NSCLC) was > 100 µM, the TGI (UO-31 renal) was > 100 µM and the TGI (M14 melanoma) was > 100 µM. The TGI (UACC-62 melanoma) was > 100 µM, the TGI (SW-620 colon) was > 100 µM and the TGI (UACC-257 melanoma) was > 100 µM. The TGI (DLD-1 colon) was > 100 µM, the TGI (ACHN renal) was > 100 µM and the TGI (MALME-3M melanoma) was > 100 µM. For the same compound, the TGI (SF-268 CNS) was > 100 µM, the TGI (COLO 205 colon) was > 100 µM and the TGI (A498 renal) was 86.4 µM. The TGI (OVCAR-5 ovarian) was > 100 µM, the TGI (SF-539 CNS) was > 100 µM and the TGI (NCI-H460 lung) was > 100 µM. The TGI (NCI-H522 lung) was > 100 µM, the TGI (HT29 colon) was > 100 µM and the TGI (CAKI-1 renal) was > 100 µM. The TGI (786-0 renal) was > 100 µM, the TGI (HCT-15 colon) was > 100 µM and the TGI (SR leukemia) was > 100 µM. The TGI (LOX IMVI melanoma) was > 100 µM, the TGI (OVCAR-8 ovarian) was > 100 µM and the TGI (SK-MEL-2 melanoma) was > 100 µM. For the same compound, the TGI (NCI-H23 lung) was > 100 µM, the TGI (U251 CNS) was > 100 µM and the TGI (RXF-631 renal) was > 100 µM. The TGI (M19-MEL melanoma) was > 100 µM, the TGI (HOP-62 NSCLC) was > 100 µM and the TGI (OVCAR-4 ovarian) was > 100 µM. The TGI (LXFL 529 NSCLC) was > 100 µM, the TGI (HCT-116 colon) was > 100 µM and the TGI (SNB-19 CNS) was > 100 µM. For the same compound, the TGI (DMS 114 small cell lung) was > 100 µM, the TGI (SN12C renal) was > 100 µM and the TGI (SF-295 CNS) was > 100 µM. For the same compound, the TGI (NCI-H226 lung) was 89.6 µM.

N/C(=N\N=C\c1ccc(C(F)(F)F)cc1)NO was tested, and the TGI (KM12 colon) was > 100 µM, the TGI (OVCAR-3 ovarian) was 62.9 µM and the TGI (SNB-78 CNS) was > 100 µM. The TGI (IGROV1 ovarian) was 33.2 µM, the TGI (TK-10 renal) was > 100 µM and the TGI (XF 498 CNS) was 51 µM. For the same compound, the TGI (SK-OV-3 ovarian) was > 100 µM, the TGI (A549 NSCLC) was 59.2 µM and the TGI (EKVX NSCLC) was 33.7 µM. For the same compound, the TGI (M14 melanoma) was 29.2 µM, the TGI (UACC-62 melanoma) was 21.7 µM and the TGI (SW-620 colon) was > 100 µM. For the same compound, the TGI (UACC-257 melanoma) was > 100 µM, the TGI (HL-60(TB) leukemia) was 46.3 µM and the TGI (DLD-1 colon) was > 100 µM. The TGI (ACHN renal) was 25.6 µM, the TGI (MALME-3M melanoma) was > 100 µM and the TGI (SF-268 CNS) was 61 µM. For the same compound, the TGI (COLO 205 colon) was 38.7 µM, the TGI (A498 renal) was > 100 µM and the TGI (SF-539 CNS) was 50.6 µM. For the same compound, the TGI (NCI-H460 lung) was > 100 µM, the TGI (NCI-H522 lung) was 50.4 µM and the TGI (HT29 colon) was > 100 µM. The TGI (SK-MEL-28 melanoma) was > 100 µM, the TGI (CAKI-1 renal) was 38.1 µM and the TGI (786-0 renal) was 37.7 µM. The TGI (SNB-75 CNS) was > 100 µM, the TGI (SR leukemia) was > 100 µM and the TGI (OVCAR-8 ovarian) was 41.2 µM. It also gave a TGI (SK-MEL-2 melanoma) of 92 µM, a TGI (NCI-H23 lung) of 52.9 µM and a TGI (DMS 273 small cell lung) of 59.9 µM. The TGI (U251 CNS) was 87.3 µM, the TGI (CCRF-CEM leukemia) was 95.5 µM and the TGI (RXF 393 renal) was > 100 µM. For the same compound, the TGI (M19-MEL melanoma) was > 100 µM, the TGI (HOP-62 NSCLC) was 55 µM and the TGI (OVCAR-4 ovarian) was > 100 µM. The TGI (LXFL 529 NSCLC) was > 100 µM, the TGI (HCT-116 colon) was > 100 µM and the TGI (K-562 leukemia) was > 100 µM. The TGI (HOP-92 NSCLC) was 58.8 µM, the TGI (DMS 114 small cell lung) was > 100 µM and the TGI (SN12C renal) was > 100 µM. The TGI (SF-295 CNS) was > 100 µM.
